ChEMBL document CHEMBL5113400, “Design, synthesis, and biological evaluation of trizole-based heteroaromatic derivatives as Bcr-Abl kinase inhibitors” (Eur J Med Chem, 2022)

Key:
BaF3 [1] = test: Antiproliferative activity against mouse BaF3 cells expressing Bcr-Abl T315I mutant assessed as inhibition of cell growth at 30 uM incubated for 72 hrs by CellTiter-Glo luminescent assay; assay type: functional
K562 [2] = test: Induction of apoptosis in human K562 cells assessed as early apoptotic cells at 5 uM incubated for 48 hrs by Annexin V-FITC/PI staining based flow cytometry analysis (Rvb= 11.35%); assay type: functional
K562 [3] = test: Induction of apoptosis in human K562 cells assessed as early apoptotic cells at 20 uM incubated for 48 hrs by Annexin V-FITC/PI staining based flow cytometry analysis (Rvb= 11.35%); assay type: functional
K562 [4] = test: Induction of apoptosis in human K562 cells assessed as late apoptotic cells at 10 uM incubated for 48 hrs by Annexin V-FITC/PI staining based flow cytometry analysis (Rvb= 5.35%); assay type: functional
K-562R = test: Antiproliferative activity against human K-562R cells expressing Bcr-Abl T315I mutant assessed as inhibition of cell growth incubated for 48 hrs by MTT assay; assay type: functional, cell-based
K562 [5] = test: Antiproliferative activity against human K562 cells assessed as inhibition of cell growth incubated for 48 hrs by MTT assay; assay type: functional, cell-based; conditions: K562, 48 h
HEK293 = test: Cytotoxicity against human HEK293 cells assessed as inhibition of cell growth upto 100 uM incubated for 48 hrs by MTT assay; assay type: toxicity, cell-based; conditions: hek293, 48 h
K562 [6] = test: Induction of apoptosis in human K562 cells assessed as viable cells at 5 uM incubated for 48 hrs by Annexin V-FITC/PI staining based flow cytometry analysis (Rvb= 83.0.5%); assay type: functional; conditions: read-out: Activity
BaF3 [7] = test: Antiproliferative activity against mouse BaF3 cells assessed as inhibition of cell growth incubated for 72 hrs by CellTiter-Glo luminescent assay; assay type: functional, cell-based; conditions: BaF3, 72 h
[8] = target: T1, Signal transducer and activator of transcription 5A (Homo sapiens) (UniProt P42229); test: Inhibition of STAT5 phosphorylation at Tyr694 residue in human K562 cells expressing wild type Bcr-Abl at 0.1 to 15 uM measured after 48 hrs by Western blot analysis; assay type: cell-based; conditions: dose 0.1-15 µM, DDE = dose-dependent effect
T1 sequence (whole entry): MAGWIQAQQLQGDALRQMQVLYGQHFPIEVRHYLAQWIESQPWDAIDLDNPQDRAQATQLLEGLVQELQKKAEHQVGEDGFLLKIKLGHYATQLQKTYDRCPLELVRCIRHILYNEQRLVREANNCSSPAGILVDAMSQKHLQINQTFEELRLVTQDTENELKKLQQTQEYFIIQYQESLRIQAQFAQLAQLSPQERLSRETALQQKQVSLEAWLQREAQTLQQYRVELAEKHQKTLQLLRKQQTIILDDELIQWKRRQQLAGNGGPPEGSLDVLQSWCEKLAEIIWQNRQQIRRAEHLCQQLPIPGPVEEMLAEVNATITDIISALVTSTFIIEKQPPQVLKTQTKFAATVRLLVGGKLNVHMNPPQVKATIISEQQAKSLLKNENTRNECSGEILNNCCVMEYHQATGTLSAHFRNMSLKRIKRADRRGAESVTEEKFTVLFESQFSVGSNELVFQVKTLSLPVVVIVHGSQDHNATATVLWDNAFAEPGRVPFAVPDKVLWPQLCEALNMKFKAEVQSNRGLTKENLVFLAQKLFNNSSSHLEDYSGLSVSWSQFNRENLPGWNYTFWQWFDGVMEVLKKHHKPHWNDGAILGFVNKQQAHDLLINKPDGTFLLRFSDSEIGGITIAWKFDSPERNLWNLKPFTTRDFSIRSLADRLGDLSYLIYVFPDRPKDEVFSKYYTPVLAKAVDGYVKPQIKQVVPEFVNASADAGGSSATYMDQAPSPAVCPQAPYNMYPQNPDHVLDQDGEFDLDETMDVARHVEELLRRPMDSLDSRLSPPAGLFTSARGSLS

EA.hy 926 = test: Cytotoxicity against human EA.hy 926 cells assessed as inhibition of cell growth upto 100 uM incubated for 48 hrs by MTT assay; assay type: toxicity, cell-based; conditions: ea.hy 926, 48 h
K562 [9] = test: Induction of apoptosis in human K562 cells assessed as necrotic cells at 20 uM incubated for 48 hrs by Annexin V-FITC/PI staining based flow cytometry analysis (Rvb= 0.25%); assay type: functional
Bcr/Abl fusion protein [10] = target: Bcr/Abl fusion protein (Homo sapiens, UniProt P00519); test: Inhibition of wild type Bcr-Abl (unknown origin) incubated for 1 hr in presence of ATP by ADP-Glo kinase assay; assay type: protein assay
K562 [11] = test: Induction of apoptosis in human K562 cells assessed as necrotic cells at 5 uM incubated for 48 hrs by Annexin V-FITC/PI staining based flow cytometry analysis (Rvb= 0.25%); assay type: functional
BaF3 [12] = test: Antiproliferative activity against mouse BaF3 cells expressing wild type Bcr-Abl assessed as inhibition of cell growth incubated for 72 hrs by CellTiter-Glo luminescent assay; assay type: functional, cell-based; conditions: BaF3, 72 h
K562 [13] = test: Induction of apoptosis in human K562 cells assessed as early apoptotic cells at 10 uM incubated for 48 hrs by Annexin V-FITC/PI staining based flow cytometry analysis (Rvb= 11.35%); assay type: functional
Bcr/Abl fusion protein [14] = target: Bcr/Abl fusion protein (Homo sapiens, UniProt P00519, T315I); test: Inhibition of Bcr-Abl T315I mutant (unknown origin) incubated for 1 hr in presence of ATP by ADP-Glo kinase assay; assay type: protein assay
BaF3 [15] = test: Antiproliferative activity against mouse BaF3 cells expressing Bcr-Abl T315I mutant assessed as inhibition of cell growth incubated for 72 hrs by CellTiter-Glo luminescent assay; assay type: functional, cell-based; conditions: BaF3, 72 h
K562/Adr = test: Antiproliferative activity against human Adriamycin-resistant K562/Adr cells assessed as inhibition of cell growth incubated for 48 hrs by MTT assay; assay type: functional, cell-based
K562 [16] = test: Induction of cell cycle arrest in human K562 cells assessed as accumulation at S phase at 5 to 20 uM incubated for 48 hrs by PI staining based flow cytometry (Rvb=49%); assay type: functional; conditions: dose 5-20 µM
K562 [17] = test: Induction of apoptosis in human K562 cells assessed as necrotic cells at 10 uM incubated for 48 hrs by Annexin V-FITC/PI staining based flow cytometry analysis (Rvb= 0.25%); assay type: functional
K562 [18] = test: Induction of apoptosis in human K562 cells assessed as viable cells at 10 uM incubated for 48 hrs by Annexin V-FITC/PI staining based flow cytometry analysis (Rvb= 83.0.5%); assay type: functional; conditions: read-out: Activity
K562 [19] = test: Induction of apoptosis in human K562 cells assessed as late apoptotic cells at 5 uM incubated for 48 hrs by Annexin V-FITC/PI staining based flow cytometry analysis (Rvb= 5.35%); assay type: functional
K562 [20] = test: Induction of apoptosis in human K562 cells assessed as viable cells at 20 uM incubated for 48 hrs by Annexin V-FITC/PI staining based flow cytometry analysis (Rvb= 83.0.5%); assay type: functional; conditions: read-out: Activity
[21] = target: Bcr/Abl fusion protein (Homo sapiens) (UniProt P00519+P11274); test: Inhibition of Bcr-Abl phosphorylation at Tyr245 residue in human K562 cells expressing wild type Bcr-Abl at 0.1 to 15 uM measured after 48 hrs by Western blot analysis; assay type: cell-based; conditions: dose 0.1-15 µM, DDE = dose-dependent effect
K562 [22] = test: Induction of apoptosis in human K562 cells assessed as late apoptotic cells at 20 uM incubated for 48 hrs by Annexin V-FITC/PI staining based flow cytometry analysis (Rvb= 5.35%); assay type: functional

## O=C(Nc1n[nH]c2cc(-c3cn([C@@H]4CN[C@H](C(=O)Nc5ccc(Cl)c(C(F)(F)F)c5)C4)nn3)ccc12)C1CC1
BaF3 [1]
  inhibition at 30 µM: 85.4%
K562 [2]
  Activity: 14.34%
K562 [3]
  Activity: 33.16%
K562 [4]
  Activity: 12.74%
K-562R
  IC50: 40.1 µM
K562 [5]
  IC50: 5.2 µM
HEK293
  Activity: Non-Toxic
K562 [6]
  viability at 5 µM: 76.7%
BaF3 [7]
  IC50: > 20 µM
[8]
  inhibition: Dde
EA.hy 926
  Activity: Non-Toxic
K562 [9]
  Activity: 0.23%
Bcr/Abl fusion protein [10]
  IC50: 0.0015 µM
K562 [11]
  Activity: 0.22%
BaF3 [12]
  IC50: 1.42 µM
K562 [13]
  Activity: 18.48%
Bcr/Abl fusion protein [14]
  IC50: 0.188 µM
BaF3 [15]
  IC50: 9.47 µM
K562/Adr
  IC50: 9.57 µM
K562 [16]
  Activity: 54.15%
K562 [17]
  Activity: 0.19%
K562 [18]
  viability at 10 µM: 68.6%
K562 [19]
  Activity: 8.75%
K562 [20]
  viability at 20 µM: 54.4%
[21]
  inhibition: Dde
K562 [22]
  Activity: 12.2%
